The target of test [1] is Serine/threonine-protein kinase N2 (Homo sapiens) (UniProt Q16513). As to the kind of experiment: Inhibition of human PRK2 at 1.82 nM by HotSpot assay relative to control.
For test [2], the target named is Serine/threonine-protein kinase 25 (Homo sapiens) (UniProt O00506). As to the kind of experiment: Inhibition of human YSK1 at 1.82 nM by HotSpot assay relative to control.
Test [3] concerns the target Wee1-like protein kinase (Homo sapiens) (UniProt P30291). As to the kind of experiment: Inhibition of human WEE1 at 1.82 nM by HotSpot assay relative to control.
The target of test [4] is T1, Aurora kinase C (Homo sapiens) (UniProt Q9UQB9).
T1 sequence (whole entry): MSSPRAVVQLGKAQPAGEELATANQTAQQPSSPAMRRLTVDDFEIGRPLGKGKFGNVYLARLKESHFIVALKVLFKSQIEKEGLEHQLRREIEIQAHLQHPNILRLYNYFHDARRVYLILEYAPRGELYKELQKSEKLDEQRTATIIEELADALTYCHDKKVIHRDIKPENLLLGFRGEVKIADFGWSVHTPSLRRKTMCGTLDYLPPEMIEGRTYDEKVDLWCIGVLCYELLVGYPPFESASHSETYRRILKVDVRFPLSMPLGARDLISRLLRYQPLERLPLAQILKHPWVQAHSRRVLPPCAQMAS
Description: Inhibition of human Aurora C at 1.82 nM by HotSpot assay relative to control.

The target in test [5] is T2, Ephrin type-A receptor 8 (Homo sapiens) (UniProt P29322).
T2 sequence (whole entry): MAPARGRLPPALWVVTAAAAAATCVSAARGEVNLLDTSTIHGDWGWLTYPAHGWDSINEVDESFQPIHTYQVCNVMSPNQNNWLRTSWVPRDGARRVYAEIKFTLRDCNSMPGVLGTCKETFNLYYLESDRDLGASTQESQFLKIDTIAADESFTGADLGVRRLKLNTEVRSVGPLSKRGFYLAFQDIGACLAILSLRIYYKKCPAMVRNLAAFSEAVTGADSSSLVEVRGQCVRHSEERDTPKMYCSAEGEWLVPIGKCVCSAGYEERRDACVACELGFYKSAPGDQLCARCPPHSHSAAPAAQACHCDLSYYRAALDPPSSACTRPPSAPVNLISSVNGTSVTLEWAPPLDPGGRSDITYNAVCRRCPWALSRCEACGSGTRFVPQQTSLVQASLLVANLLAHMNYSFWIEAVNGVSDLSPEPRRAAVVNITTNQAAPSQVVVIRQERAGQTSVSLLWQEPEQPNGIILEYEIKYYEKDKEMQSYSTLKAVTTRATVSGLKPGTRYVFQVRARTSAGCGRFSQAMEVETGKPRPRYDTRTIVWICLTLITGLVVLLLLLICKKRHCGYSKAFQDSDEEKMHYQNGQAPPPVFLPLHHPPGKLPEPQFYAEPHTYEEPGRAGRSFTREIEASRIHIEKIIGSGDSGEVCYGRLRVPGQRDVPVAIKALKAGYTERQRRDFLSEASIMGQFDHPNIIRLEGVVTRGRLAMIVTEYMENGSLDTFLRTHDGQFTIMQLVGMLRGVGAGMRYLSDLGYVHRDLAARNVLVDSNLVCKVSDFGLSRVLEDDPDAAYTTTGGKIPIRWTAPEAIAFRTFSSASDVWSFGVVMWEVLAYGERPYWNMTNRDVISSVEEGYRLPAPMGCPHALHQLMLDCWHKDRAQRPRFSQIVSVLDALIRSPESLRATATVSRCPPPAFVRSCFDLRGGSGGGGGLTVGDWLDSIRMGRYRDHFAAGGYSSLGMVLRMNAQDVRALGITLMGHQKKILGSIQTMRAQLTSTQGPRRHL
As to the kind of experiment: Inhibition of human EPHA8 at 1.82 nM by HotSpot assay relative to control.

Test [6] has as its target T3, Protein kinase C zeta type (Homo sapiens) (UniProt Q05513).
T3 sequence (whole entry): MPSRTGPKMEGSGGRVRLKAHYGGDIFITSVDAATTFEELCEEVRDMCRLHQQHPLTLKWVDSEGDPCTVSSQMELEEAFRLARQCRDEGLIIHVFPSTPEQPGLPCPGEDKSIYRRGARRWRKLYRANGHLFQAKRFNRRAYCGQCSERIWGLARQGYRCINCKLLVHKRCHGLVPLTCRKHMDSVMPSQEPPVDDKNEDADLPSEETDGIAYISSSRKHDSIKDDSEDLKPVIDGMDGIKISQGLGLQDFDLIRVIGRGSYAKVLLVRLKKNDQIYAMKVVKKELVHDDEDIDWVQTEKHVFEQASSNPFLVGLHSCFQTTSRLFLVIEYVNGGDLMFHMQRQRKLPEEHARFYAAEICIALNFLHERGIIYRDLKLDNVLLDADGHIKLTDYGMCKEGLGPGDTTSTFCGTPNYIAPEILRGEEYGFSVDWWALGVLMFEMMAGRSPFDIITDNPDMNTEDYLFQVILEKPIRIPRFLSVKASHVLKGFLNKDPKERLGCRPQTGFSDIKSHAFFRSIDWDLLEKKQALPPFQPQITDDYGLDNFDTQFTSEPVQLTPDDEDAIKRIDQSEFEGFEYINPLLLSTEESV
As to the kind of experiment: Inhibition of human PKCzeta at 500 nM by HotSpot assay relative to control.

The target of test [7] is MAP kinase-activated protein kinase 3 (Homo sapiens) (UniProt Q16644). Description: Inhibition of human MAPKAPK3 at 18.6 nM by HotSpot assay relative to control.
Test [8] deals with T4, MAP/microtubule affinity-regulating kinase 4 (Homo sapiens) (UniProt Q96L34).
T4 sequence (whole entry): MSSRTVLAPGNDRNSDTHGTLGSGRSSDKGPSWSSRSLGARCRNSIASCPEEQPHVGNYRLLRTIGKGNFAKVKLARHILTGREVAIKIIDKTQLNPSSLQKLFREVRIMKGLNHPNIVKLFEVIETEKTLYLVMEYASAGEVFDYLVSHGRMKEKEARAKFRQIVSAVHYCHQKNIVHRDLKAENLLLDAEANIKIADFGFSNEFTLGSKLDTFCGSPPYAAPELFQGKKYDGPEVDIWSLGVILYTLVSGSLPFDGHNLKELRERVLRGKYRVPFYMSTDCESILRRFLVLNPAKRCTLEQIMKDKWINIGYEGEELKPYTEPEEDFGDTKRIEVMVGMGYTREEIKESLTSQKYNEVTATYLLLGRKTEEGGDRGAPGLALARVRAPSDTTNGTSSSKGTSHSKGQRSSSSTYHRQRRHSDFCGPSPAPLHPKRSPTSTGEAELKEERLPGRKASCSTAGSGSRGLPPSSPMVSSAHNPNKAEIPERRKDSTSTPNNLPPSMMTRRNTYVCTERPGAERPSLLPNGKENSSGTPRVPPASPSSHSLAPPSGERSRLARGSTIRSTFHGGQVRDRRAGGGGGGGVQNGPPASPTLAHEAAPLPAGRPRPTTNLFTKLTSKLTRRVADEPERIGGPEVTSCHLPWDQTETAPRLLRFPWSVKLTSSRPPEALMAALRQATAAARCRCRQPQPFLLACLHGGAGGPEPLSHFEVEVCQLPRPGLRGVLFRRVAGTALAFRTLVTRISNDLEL
As to the kind of experiment: Inhibition of human MARK4 at 18.6 nM by HotSpot assay relative to control.

Each structure is given as a SMILES string.

Sequence of Serine/threonine-protein kinase 25 (Homo sapiens) (O00506 whole entry, looked up): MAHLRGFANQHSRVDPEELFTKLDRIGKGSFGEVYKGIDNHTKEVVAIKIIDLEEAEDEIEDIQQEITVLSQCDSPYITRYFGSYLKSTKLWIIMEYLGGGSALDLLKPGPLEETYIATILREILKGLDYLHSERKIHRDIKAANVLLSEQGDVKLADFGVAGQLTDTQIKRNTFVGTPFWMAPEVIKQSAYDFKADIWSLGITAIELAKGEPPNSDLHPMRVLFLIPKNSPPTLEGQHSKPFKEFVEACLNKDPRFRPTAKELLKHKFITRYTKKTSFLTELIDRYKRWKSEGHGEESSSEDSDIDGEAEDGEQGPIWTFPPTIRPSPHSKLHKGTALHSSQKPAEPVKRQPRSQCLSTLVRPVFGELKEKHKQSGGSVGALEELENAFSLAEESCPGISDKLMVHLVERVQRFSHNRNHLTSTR
Sequence of Serine/threonine-protein kinase N2 (Homo sapiens) (Q16513 whole entry, looked up): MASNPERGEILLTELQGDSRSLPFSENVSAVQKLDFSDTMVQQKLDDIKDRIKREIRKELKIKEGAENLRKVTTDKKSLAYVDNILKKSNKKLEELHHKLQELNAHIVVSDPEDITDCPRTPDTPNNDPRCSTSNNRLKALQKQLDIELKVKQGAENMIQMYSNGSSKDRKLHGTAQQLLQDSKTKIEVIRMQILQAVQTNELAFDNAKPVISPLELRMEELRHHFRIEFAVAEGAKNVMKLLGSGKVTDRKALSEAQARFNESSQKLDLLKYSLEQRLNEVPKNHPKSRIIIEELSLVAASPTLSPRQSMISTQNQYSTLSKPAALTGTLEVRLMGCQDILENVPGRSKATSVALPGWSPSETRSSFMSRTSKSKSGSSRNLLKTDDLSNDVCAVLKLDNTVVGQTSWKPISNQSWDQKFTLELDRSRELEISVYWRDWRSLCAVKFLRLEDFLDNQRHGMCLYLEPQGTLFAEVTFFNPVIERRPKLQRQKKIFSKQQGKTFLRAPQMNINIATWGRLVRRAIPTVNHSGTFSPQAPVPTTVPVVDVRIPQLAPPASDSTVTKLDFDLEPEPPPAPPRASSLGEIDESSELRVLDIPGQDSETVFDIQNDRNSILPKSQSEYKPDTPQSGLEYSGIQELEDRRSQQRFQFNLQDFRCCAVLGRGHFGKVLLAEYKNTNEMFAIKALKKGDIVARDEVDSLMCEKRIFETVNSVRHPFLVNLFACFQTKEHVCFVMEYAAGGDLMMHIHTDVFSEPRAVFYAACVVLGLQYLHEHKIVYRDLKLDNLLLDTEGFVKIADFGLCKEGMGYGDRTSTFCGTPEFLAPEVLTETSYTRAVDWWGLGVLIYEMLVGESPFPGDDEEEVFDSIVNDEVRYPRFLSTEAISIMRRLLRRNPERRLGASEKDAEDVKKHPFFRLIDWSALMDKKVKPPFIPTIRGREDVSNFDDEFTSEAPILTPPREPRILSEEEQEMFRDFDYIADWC
Sequence of Wee1-like protein kinase (Homo sapiens) (P30291 whole entry, looked up): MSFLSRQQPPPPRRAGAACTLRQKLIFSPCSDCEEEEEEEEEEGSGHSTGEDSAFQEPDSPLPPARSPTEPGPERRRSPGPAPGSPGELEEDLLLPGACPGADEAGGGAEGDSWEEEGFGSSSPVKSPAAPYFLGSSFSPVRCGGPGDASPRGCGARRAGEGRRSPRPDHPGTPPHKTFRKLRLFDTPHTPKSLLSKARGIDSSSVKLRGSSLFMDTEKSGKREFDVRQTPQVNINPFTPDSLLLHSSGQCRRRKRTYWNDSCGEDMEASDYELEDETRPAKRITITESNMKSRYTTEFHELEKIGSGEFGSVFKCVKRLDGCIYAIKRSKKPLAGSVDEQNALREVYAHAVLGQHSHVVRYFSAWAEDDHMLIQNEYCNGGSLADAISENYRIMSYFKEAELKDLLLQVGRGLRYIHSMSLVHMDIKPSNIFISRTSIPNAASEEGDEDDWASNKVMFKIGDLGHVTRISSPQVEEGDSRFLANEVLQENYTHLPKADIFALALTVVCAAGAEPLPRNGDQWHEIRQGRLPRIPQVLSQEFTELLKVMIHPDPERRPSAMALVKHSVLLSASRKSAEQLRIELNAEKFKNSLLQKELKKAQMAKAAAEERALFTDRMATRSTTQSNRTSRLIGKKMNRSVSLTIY
Sequence of MAP kinase-activated protein kinase 3 (Homo sapiens) (Q16644 whole entry, looked up): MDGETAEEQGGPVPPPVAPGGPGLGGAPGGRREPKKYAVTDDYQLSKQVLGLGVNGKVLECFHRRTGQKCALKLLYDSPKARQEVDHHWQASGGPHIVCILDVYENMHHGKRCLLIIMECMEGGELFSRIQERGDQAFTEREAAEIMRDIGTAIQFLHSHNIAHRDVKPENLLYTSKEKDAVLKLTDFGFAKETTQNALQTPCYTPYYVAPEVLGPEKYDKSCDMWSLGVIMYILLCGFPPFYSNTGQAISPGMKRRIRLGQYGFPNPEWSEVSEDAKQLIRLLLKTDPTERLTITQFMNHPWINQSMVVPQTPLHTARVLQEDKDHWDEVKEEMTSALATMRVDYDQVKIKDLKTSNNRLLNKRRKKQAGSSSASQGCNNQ

In general, inhibition refers to the relative decrease from the control value, in per cent. As for `C[C@@]1(C(=O)Nc2ccc(F)nc2)CCCN1c1nc(Nc2cc(C3CC3)n[nH]2)c2cccn2n1`, the inhibition in test [1] is -0.34%; in test [2], 5.25%; in test [3] it was 1.94%; in test [4], 35.7%; in test [5] it was -4.62%.
As for `Nc1n[nH]c2nnc(-c3c(-c4ccccc4)nn4ccccc34)cc12`, in test [6], the inhibition was determined as 16.1%.
Turning to `C[C@]1(O)C[C@@H](c2nc(-c3ccc4ccc(-c5ccccc5)nc4c3)c3c(N)nccn32)C1`, the inhibition in test [7] is 0.25%; in test [8] it was 7.12%.
